Laboratory results: PMC6704710, “Preclinical evaluation of 3D185, a novel potent inhibitor of FGFR1/2/3 and CSF-1R, in FGFR-dependent and macrophage-dominant cancer models” (Journal of Experimental & Clinical Cancer Research : CR, 2019)

How the values were obtained:
Assay in all cases: Eurofins kinase panel
Format in all cases: biochemical
Settings in all cases: read-out: Inhibition rate (%)
[1] = molecular target: T1, CK2α2(h) (Homo sapiens, UniProt P19784)
T1 construct: purchased Eurofins (KinaseProfiler)

[2] = molecular target: T2, NEK1(h) (Homo sapiens, UniProt Q96PY6)
T2 construct: purchased Eurofins (KinaseProfiler)
T2 sequence (Q96PY6 1-1258): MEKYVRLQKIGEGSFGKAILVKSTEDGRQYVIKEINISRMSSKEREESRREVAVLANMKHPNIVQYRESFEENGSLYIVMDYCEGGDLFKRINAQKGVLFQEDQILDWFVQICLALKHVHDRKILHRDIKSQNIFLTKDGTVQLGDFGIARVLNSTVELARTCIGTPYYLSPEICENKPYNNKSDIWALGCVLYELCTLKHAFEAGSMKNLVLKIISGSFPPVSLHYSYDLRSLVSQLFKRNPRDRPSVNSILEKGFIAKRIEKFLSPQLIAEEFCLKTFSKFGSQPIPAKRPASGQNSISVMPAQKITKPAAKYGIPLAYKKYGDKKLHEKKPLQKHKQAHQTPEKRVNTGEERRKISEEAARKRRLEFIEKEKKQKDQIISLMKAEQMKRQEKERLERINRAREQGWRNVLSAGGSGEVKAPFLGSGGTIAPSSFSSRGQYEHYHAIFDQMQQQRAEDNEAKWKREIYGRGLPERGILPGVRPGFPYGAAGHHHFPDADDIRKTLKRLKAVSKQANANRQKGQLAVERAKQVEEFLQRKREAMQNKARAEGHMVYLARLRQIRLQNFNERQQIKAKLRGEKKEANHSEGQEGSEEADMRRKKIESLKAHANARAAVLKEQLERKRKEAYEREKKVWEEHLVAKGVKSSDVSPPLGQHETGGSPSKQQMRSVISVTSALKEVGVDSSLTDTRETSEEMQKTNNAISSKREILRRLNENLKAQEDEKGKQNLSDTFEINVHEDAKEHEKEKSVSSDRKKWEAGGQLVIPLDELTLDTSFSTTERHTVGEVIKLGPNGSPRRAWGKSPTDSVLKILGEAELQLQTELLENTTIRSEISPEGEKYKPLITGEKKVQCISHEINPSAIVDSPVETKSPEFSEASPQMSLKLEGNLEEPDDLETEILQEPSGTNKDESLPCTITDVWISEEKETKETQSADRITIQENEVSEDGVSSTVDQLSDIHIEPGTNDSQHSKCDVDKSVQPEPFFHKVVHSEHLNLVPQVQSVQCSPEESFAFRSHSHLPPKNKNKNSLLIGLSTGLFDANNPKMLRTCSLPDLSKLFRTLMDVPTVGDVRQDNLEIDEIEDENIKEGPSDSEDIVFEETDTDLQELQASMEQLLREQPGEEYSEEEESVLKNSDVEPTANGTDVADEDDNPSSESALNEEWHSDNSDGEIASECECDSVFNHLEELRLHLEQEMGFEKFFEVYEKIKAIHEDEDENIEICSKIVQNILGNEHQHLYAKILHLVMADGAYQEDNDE

[3] = molecular target: T3, PI3 Kinase (p110δ/p85α)(h) (Homo sapiens, UniProt O00329)
T3 construct: purchased Eurofins (KinaseProfiler)

[4] = molecular target: T4, SAPK4(h) (Homo sapiens, UniProt O15264)
T4 construct: purchased Eurofins (KinaseProfiler)
T4 sequence (O15264 1-365): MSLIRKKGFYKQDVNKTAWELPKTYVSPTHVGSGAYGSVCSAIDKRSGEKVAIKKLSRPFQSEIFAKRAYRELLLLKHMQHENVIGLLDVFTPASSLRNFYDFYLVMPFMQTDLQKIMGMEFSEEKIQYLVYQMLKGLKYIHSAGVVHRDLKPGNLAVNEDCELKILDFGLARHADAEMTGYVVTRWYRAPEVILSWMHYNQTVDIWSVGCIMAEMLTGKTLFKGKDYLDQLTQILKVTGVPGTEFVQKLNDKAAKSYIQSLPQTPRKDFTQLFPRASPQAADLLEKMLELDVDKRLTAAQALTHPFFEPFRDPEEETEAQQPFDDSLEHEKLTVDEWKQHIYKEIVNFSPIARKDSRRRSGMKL

[5] = molecular target: T5, TTK(h) (Homo sapiens, UniProt P33981)
T5 construct: purchased Eurofins (KinaseProfiler)
T5 sequence (P33981 1-857): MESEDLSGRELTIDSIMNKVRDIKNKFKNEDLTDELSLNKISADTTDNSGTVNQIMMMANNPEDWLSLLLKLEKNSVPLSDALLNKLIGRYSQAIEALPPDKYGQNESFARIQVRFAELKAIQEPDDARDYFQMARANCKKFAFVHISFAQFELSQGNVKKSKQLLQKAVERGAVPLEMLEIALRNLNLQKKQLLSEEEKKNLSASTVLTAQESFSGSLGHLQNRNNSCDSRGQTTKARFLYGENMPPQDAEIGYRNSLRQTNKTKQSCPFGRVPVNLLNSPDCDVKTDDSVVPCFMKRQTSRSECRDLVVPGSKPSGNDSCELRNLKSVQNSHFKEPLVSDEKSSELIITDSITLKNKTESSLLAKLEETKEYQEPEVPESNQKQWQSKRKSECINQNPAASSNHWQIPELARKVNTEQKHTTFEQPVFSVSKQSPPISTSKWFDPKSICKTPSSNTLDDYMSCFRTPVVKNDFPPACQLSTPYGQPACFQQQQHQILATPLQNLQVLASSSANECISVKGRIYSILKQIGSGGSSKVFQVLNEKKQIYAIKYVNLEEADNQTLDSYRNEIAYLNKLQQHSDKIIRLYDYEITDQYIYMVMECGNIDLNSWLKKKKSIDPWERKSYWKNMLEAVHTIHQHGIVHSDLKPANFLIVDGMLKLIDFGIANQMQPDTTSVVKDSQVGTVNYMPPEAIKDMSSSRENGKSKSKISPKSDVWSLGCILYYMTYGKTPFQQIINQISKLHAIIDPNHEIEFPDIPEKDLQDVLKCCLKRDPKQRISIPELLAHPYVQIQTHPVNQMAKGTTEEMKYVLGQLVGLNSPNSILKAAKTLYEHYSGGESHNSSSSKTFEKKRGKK

T3 sequence (O00329 whole entry): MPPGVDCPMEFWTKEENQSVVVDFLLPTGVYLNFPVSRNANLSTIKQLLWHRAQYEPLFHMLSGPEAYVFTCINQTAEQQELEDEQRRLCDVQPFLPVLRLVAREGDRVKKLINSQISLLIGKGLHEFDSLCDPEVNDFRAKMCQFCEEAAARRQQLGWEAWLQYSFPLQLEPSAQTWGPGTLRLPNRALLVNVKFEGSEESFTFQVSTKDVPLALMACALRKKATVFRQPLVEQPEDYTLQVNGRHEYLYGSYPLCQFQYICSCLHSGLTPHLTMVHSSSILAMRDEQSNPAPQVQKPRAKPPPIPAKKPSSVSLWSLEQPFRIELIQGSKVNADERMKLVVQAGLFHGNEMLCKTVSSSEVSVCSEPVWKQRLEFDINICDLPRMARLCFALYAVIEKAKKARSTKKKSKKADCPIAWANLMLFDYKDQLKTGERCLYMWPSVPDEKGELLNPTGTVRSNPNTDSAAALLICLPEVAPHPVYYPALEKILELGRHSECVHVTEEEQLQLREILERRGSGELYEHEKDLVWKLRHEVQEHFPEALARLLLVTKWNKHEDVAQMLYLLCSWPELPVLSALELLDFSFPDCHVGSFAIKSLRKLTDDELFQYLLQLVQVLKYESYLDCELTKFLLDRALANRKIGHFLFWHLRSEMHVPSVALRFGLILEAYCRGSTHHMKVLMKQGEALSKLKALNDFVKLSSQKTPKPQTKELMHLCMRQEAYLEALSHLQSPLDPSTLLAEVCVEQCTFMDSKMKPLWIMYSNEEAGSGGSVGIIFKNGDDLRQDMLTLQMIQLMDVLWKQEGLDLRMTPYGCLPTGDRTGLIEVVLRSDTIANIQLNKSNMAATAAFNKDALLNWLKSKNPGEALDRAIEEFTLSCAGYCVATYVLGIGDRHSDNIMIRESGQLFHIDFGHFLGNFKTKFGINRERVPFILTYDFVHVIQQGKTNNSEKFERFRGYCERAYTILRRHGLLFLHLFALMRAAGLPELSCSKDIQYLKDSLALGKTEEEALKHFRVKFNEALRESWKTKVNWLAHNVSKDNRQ
T3 sequence (P27986 whole entry partner): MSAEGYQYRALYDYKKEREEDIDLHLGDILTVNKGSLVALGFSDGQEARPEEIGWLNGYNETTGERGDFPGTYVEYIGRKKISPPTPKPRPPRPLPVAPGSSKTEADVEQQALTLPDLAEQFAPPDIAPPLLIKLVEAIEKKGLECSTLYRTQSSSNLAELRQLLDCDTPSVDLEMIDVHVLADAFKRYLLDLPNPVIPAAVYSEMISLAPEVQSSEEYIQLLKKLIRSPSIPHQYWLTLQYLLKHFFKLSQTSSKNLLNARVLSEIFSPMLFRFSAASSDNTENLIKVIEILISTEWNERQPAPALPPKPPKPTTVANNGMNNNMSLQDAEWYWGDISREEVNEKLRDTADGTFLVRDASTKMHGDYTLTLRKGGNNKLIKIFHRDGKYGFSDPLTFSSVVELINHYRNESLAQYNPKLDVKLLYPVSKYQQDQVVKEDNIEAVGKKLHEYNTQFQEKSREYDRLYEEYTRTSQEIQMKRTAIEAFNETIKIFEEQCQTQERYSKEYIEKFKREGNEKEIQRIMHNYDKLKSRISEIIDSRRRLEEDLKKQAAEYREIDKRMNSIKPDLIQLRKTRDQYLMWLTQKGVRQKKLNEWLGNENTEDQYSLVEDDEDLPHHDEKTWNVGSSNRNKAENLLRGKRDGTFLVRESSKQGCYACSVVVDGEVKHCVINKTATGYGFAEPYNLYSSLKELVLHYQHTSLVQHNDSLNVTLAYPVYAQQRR
T1 sequence (P19784 whole entry): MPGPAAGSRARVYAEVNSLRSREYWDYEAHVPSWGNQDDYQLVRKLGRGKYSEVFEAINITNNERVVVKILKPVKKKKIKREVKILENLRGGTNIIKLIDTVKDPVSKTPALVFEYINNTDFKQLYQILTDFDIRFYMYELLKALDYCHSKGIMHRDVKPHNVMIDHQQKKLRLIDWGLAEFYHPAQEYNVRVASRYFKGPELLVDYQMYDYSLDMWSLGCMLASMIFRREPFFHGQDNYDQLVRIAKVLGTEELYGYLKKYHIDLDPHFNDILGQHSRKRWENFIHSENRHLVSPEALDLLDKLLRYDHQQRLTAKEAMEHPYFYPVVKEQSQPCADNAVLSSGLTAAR

Molecule COc1cc(OC)c(Cl)c(-c2ccc3c(NC(=O)c4ccc(N5CCNC(C)(C)C5)cc4)n[nH]c3n2)c1Cl [3D185] has an inhibition at 0.01 µM ([1]; 10 nM) of 0%, an inhibition at 0.1 µM ([1]; 100 nM) of 1% and an inhibition at 1 µM ([1]; 1000 nM) of -6%. It also gave an inhibition at 0.01 µM ([2]; 10 nM) of 5%, an inhibition at 0.1 µM ([2]; 100 nM) of 3% and an inhibition at 1 µM ([2]; 1000 nM) of 11%. The inhibition at 0.01 µM ([3]; 10 nM) was 1%, the inhibition at 0.1 µM ([3]; 100 nM) was -4% and the inhibition at 1 µM ([3]; 1000 nM) was 5%. For the same molecule, the inhibition at 0.01 µM ([4]; 10 nM) was -12%, the inhibition at 0.1 µM ([4]; 100 nM) was -8% and the inhibition at 1 µM ([4]; 1000 nM) was -11%. It also gave an inhibition at 0.01 µM ([5]; 10 nM) of 5%, an inhibition at 0.1 µM ([5]; 100 nM) of -2% and an inhibition at 1 µM ([5]; 1000 nM) of 12%.
